From patent US20230159445A1, “STAT INHIBITORY COMPOUNDS AND COMPOSITIONS” (JANPIX LIMITED, priority 2020, published 2023) come the findings set out here.

One series relates to MV4-11 cells. Briefly: MV4-11 Cell Cytotoxicity Assay (CellTiter-Blue, 72 h). The conditions noted are these: Homo sapiens, MV4-11; MV-4-11 cells. The series is classed as cell-based, human. Summed up:
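Viability read-out: CellTiter-Blue, 1 h, fluorescence 560/590 nm. Preceded by 72 h exposure (37° C, 5% CO2) to twofold dilution series from 50 μM, triplicate, 0.5% DMSO vehicle, applied 24 h after plating.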

Series [1] relates to normal human fibroblast (NHF) cells. Briefly: NHF Cell Cytotoxicity Assay (CellTiter-Blue, 72 h), off-target effects. The conditions noted are these: Homo sapiens, Fibroblast; pooled NHF cells. The series is classed as cell-based. In short, it runs like this:
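Normal human fibroblasts (1×10^4/well, 10% FBS medium) were treated after 24 h with inhibitor at 0.097656-50 μM for 72 h at 37° C. Viability was read by CellTiter-Blue fluorescence (560/590 nm), normalized to DMSO control, and IC50 obtained from a variable-slope log(inhibitor)-response fit of four replicates.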
On the technique in general: Resazurin is reduced to fluorescent resorufin, in cell work by metabolically active cells.

The next series deals with glutathione (GSH). Nature of the series: Reactivity Profiling with Glutathione (GSH), half-life by HPLC. The following applies: 5 mM glutathione (GSH) in IMDM with 10% FBS.

One may read the IC50 as the concentration that inhibits the measured activity by half. The term half-life denotes the time needed for the level to fall by half in the phase considered.

Structures are written as SMILES.

In the case of `O=C(O)c1ccc(N(Cc2cc(C3CC3)cc(C3CC3)c2)C(=O)CN(Cc2c(F)c(F)c(F)c(F)c2F)S(=O)(=O)c2c(F)c(F)c(F)c(F)c2F)c(OC2CC2)c1` [Compound 1183, 3-cyclopropoxy-4-(N-(3,5-dicyclopropylbenzyl)-2-(N-((perfluorophenyl)methyl)-(2,3,4,5,6-pentafluoro-phenyl)sulfonamido)acetamido)benzoic acid], the IC50 in the series with MV4-11 cells is 0.01 to 316 nM; in series [1], 1 to 10000 nM. This compound also registered a half-life at 25 μM in the series with glutathione (GSH) of 9.23 to 1670 h.

For `CC(C)(C)c1cc(CN(C(=O)CN(Cc2cnccc2C(F)(F)F)S(=O)(=O)c2c(F)c(F)c(F)c(F)c2F)c2ccc(C(=O)O)cc2C2CC2)cc(C2CC2)c1` [Compound 1186, 4-(N-(3-(tert-butyl)-5-cyclopropylbenzyl)-2-(N-((4-(trifluoromethyl)pyridin-3-yl)methyl)-(2,3,4,5,6-pentafluoro-phenyl)sulfonamido)acetamido)-3-cyclopropylbenzoic acid], the IC50 was 0.01 to 316 nM with MV4-11 cells and 1 to 10000 nM in series [1]. This compound also displayed a half-life at 25 μM with glutathione (GSH) of 2.37 to 4.12 h.

Consider `CC(C)(C)c1cc(CN(C(=O)CN(Cc2ccc(F)cc2Cl)S(=O)(=O)c2c(F)c(F)c(F)c(F)c2F)c2ccc(C(=O)O)cc2OC2CC2)cc(C2CC2)c1` [Compound 1189, 4-(N-(3-(tert-butyl)-5-cyclopropylbenzyl)-2-(N-(2-chloro-4-fluorobenzyl)-(2,3,4,5,6-pentafluorophenyl)sulfon-amido)acetamido)-3-cyclopropoxybenzoic acid], for which the IC50 in the series with MV4-11 cells was in the range of 0.01 to 316 nM; in series [1] it was 10000 to 20000 nM. Further, the half-life at 25 μM in the series with glutathione (GSH) lay within 9.23 to 1670 h.

As to `O=C(O)c1ccc(N(Cc2cc(C3CC3)cc(N3CCCC3)c2)C(=O)CN(Cc2c(F)cc(F)cc2F)S(=O)(=O)c2c(F)c(F)c(F)c(F)c2F)c(OC2CC2)c1` [Compound 1191, 3-cyclopropoxy-4-(N-(3-cyclopropyl-5-(pyrrolidin-1-yl)benzyl)-2-(N-(2,4,6-trifluorobenzyl)-(2,3,4,5,6-pentafluoro-phenyl)sulfonamido)acetamido)benzoic acid], the figures for the IC50 (in the series with MV4-11 cells; in series [1]) were 316 to 1000 nM and 1 to 10000 nM, respectively. This compound also had a half-life at 25 μM in the series with glutathione (GSH) of 9.23 to 1670 h.

On to `O=C(O)c1ccc(N(Cc2cc(C3CC3)cc(N3CCCC3)c2)C(=O)CN(Cc2ccc(F)cc2Cl)S(=O)(=O)c2c(F)c(F)c(F)c(F)c2F)c(OC2CC2)c1` [Compound 1192, 4-(2-(N-(2-chloro-4-fluorobenzyl)-(2,3,4,5,6-pentafluorophenyl)sulfon-amido)-N-(3-cyclopropyl-5-(pyrrolidin-1-yl)benzyl)acetamido)-3-cyclopropoxybenzoic acid], for which the figures for the IC50 (in the series on MV4-11 cells; in series [1]) were 316 to 1000 nM and 10000 to 20000 nM, respectively. Moreover, the half-life at 25 μM in the series on glutathione (GSH) lay within 9.23 to 1670 h.

As for `O=C(O)c1ccc(N(Cc2cc(C3CC3)cc(C3CC3)c2)C(=O)CN(Cc2cnccc2C(F)(F)F)S(=O)(=O)c2c(F)c(F)c(F)c(F)c2F)c(C2CC2)c1` [Compound 1194, 3-cyclopropyl-4-(N-(3,5-dicyclopropylbenzyl)-2-(N-((4-(trifluoromethyl)pyridin-3-yl)methyl)-(2,3,4,5,6-pentafluoro-phenyl)sulfonamido)acetamido)benzoic acid], the IC50 in the series with MV4-11 cells lay in the range of 0.01 to 316 nM; in series [1] it was 1 to 10000 nM. This compound also came in with a half-life at 25 μM in the series with glutathione (GSH) of 0.00167 to 2.37 h.

`O=C(O)c1ccc(N(Cc2cc(C3CC3)cc(C3CC3)c2)C(=O)CN(Cc2c(F)cc(F)cc2F)S(=O)(=O)c2c(F)c(F)c(F)c(F)c2F)c(C2CC2)c1` [Compound 1195, 3-cyclopropyl-4-(N-(3,5-dicyclopropylbenzyl)-2-(N-(2,4,6-trifluorobenzyl)-(2,3,4,5,6-pentafluoro-phenyl)sulfonamido)acetamido)benzoic acid]: the IC50 fell in the range of 0.01 to 316 nM with MV4-11 cells and 1 to 10000 nM in series [1]. Besides, the half-life at 25 μM in the series with glutathione (GSH) lay within 2.37 to 4.12 h.

For `O=C(O)c1ccc(N(Cc2cc(C3CC3)cc(C3CC3)c2)C(=O)CN(Cc2c(F)c(F)c(F)c(F)c2F)S(=O)(=O)c2c(F)c(F)c(F)c(F)c2F)c(C2CC2)c1` [Compound 1196, 3-cyclopropyl-4-(N-(3,5-dicyclopropylbenzyl)-2-(N-((perfluorophenyl)methyl)-(2,3,4,5,6-pentafluoro-phenyl)sulfonamido)acetamido)benzoic acid], the values for the IC50 (in the series on MV4-11 cells; in series [1]) were 0.01 to 316 nM and 1 to 10000 nM, respectively. In the series on glutathione (GSH), this compound showed a half-life at 25 μM of 9.23 to 1670 h.

Take `O=C(O)c1ccc(N(Cc2cc(C3CC3)cc(C3CC3)c2)C(=O)CN(Cc2ccc(F)cc2Cl)S(=O)(=O)c2c(F)c(F)c(F)c(F)c2F)c(C2CC2)c1` [Compound 1197, 4-(2-(N-(2-chloro-4-fluorobenzyl)-(2,3,4,5,6-pentafluorophenyl)sulfon-amido)-N-(3,5-dicyclopropylbenzyl)acetamido)-3-cyclopropylbenzoic acid]: the IC50 with MV4-11 cells is 0.01 to 316 nM; in series [1] it was 10000 to 20000 nM. Besides, the half-life at 25 μM in the series on glutathione (GSH) fell in the range of 4.12 to 9.23 h.

Consider `O=C(O)c1ccc(N(Cc2cc(C3CC3)cc(N3CCCC3)c2)C(=O)CN(Cc2c(F)cc(F)cc2F)S(=O)(=O)c2c(F)c(F)c(F)c(F)c2F)c(C2CC2)c1` [Compound 1199, 3-cyclopropyl-4-(N-(3-cyclopropyl-5-(pyrrolidin-1-yl)benzyl)-2-(N-(2,4,6-trifluorobenzyl)-(2,3,4,5,6-pentafluoro-phenyl)sulfonamido)acetamido)benzoic acid], for which the figures for the half-inhibitory concentration (IC50) (in the series on MV4-11 cells; in series [1]) were 0.01 to 316 nM and 1 to 10000 nM, respectively. The same compound registered a half-life at 25 μM in the series on glutathione (GSH) of 9.23 to 1670 h.

As to `O=C(O)c1ccc(N(Cc2cc(C3CC3)cc(N3CCCC3)c2)C(=O)CN(Cc2ccc(F)cc2Cl)S(=O)(=O)c2c(F)c(F)c(F)c(F)c2F)c(C2CC2)c1` [Compound 1200, 4-(2-(N-(2-chloro-4-fluorobenzyl)-(2,3,4,5,6-pentafluorophenyl)sulfon-amido)-N-(3-cyclopropyl-5-(pyrrolidin-1-yl)benzyl)acetamido)-3-cyclopropylbenzoic acid], the IC50 in the series on MV4-11 cells was in the range of 0.01 to 316 nM; in series [1] it was 1 to 10000 nM. Further, the half-life at 25 μM in the series with glutathione (GSH) lay in the range of 9.23 to 1670 h.

As for `Cc1cc(C(=O)O)cc(C)c1N(Cc1cc(C2CC2)cc(C2CC2)c1)C(=O)CN(Cc1c(F)cc(F)cc1F)S(=O)(=O)c1c(F)c(F)c(F)c(F)c1F` [Compound 1203, 4-(N-(3,5-dicyclopropylbenzyl)-2-(N-(2,4,6-trifluorobenzyl)-(2,3,4,5,6-pentafluoro-phenyl)sulfonamido)acetamido)-3,5-dimethylbenzoic acid], the figures for the IC50 (with MV4-11 cells; in series [1]) were 0.01 to 316 nM and 1 to 10000 nM, respectively. This compound came in with a half-life at 25 μM in the series on glutathione (GSH) of 4.12 to 9.23 h.

Regarding `O=C(O)c1ccc(N(Cc2cc(C3CC3)cc(C3CC3)c2)C(=O)CN(Cc2cnccc2C(F)(F)F)S(=O)(=O)c2c(F)c(F)c(F)c(F)c2F)c(OC2CCCC2)c1` [Compound 1207, 3-(cyclopentyloxy)-4-(N-(3,5-dicyclopropylbenzyl)-2-(N-((4-(trifluoromethyl)pyridin-3-yl)methyl)-(2,3,4,5,6-pentafluoro-phenyl)sulfonamido)acetamido)benzoic acid], the IC50 is 0.01 to 316 nM in the series with MV4-11 cells and 10000 to 20000 nM in series [1]. Besides, the half-life at 25 μM in the series on glutathione (GSH) was 4.12 to 9.23 h.

`O=C(O)c1ccc(N(Cc2cc(C3CC3)cc(C3CC3)c2)C(=O)CN(Cc2ccc(F)cc2Cl)S(=O)(=O)c2c(F)c(F)c(F)c(F)c2F)c(OC2CCCC2)c1` [Compound 1208, 4-(2-(N-(2-chloro-4-fluorobenzyl)-(2,3,4,5,6-pentafluorophenyl)sulfon-amido)-N-(3,5-dicyclopropylbenzyl)acetamido)-3-(cyclopentyloxy) benzoic acid]: the values for the IC50 (in the series with MV4-11 cells; in series [1]) were 0.01 to 316 nM and 10000 to 20000 nM, respectively. Besides, in the series with glutathione (GSH), the half-life at 25 μM lay in the range of 9.23 to 1670 h.

On to `O=C(O)c1ccc(N(Cc2cc(C3CC3)cc(N3CCCC3)c2)C(=O)CN(Cc2cnccc2C(F)(F)F)S(=O)(=O)c2c(F)c(F)c(F)c(F)c2F)c(OC2CCCC2)c1` [Compound 1209, 3-(cyclopentyloxy)-4-(N-(3-cyclopropyl-5-(pyrrolidin-1-yl)benzyl)-2-(N-((4-(trifluoromethyl)pyridin-3-yl)methyl)-(2,3,4,5,6-pentafluoro-phenyl)sulfonamido)acetamido)benzoic acid], for which the IC50 in the series with MV4-11 cells lay in the range of 0.01 to 316 nM; in series [1], 10000 to 20000 nM. For the same compound, the half-life at 25 μM in the series on glutathione (GSH) lay in the range of 9.23 to 1670 h.

For the compound `CN(C)c1cc(C(=O)O)ccc1N(Cc1cc(C2CC2)cc(C2CC2)c1)C(=O)CN(Cc1cnccc1C(F)(F)F)S(=O)(=O)c1c(F)c(F)c(F)c(F)c1F` [Compound 1210, 4-(N-(3,5-dicyclopropylbenzyl)-2-(N-((4-(trifluoromethyl)pyridin-3-yl)methyl)-(2,3,4,5,6-pentafluoro-phenyl)sulfonamido)acetamido)-3-(dimethylamino) benzoic acid], the IC50 in the series with MV4-11 cells was in the range of 0.01 to 316 nM; in series [1] it was 1 to 10000 nM. This compound also had a half-life at 25 μM in the series on glutathione (GSH) of 0.00167 to 2.37 h.

As to `CN(C)c1cc(C(=O)O)ccc1N(Cc1cc(C2CC2)cc(C2CC2)c1)C(=O)CN(Cc1ccc(F)cc1Cl)S(=O)(=O)c1c(F)c(F)c(F)c(F)c1F` [Compound 1211, 4-(2-(N-(2-chloro-4-fluorobenzyl)-(2,3,4,5,6-pentafluorophenyl)sulfon-amido)-N-(3,5-dicyclopropylbenzyl)acetamido)-3-(dimethylamino) benzoic acid], the IC50 in the series with MV4-11 cells was 316 to 1000 nM; in series [1], 10000 to 20000 nM. The same compound returned a half-life at 25 μM in the series with glutathione (GSH) of 4.12 to 9.23 h.

Consider `CC(C)Oc1cc(CN(C(=O)CN(Cc2ccccc2C(F)(F)F)S(=O)(=O)c2c(F)c(F)c(F)c(F)c2F)c2ccc(C(=O)O)cc2OC2CC2)cc(C2CC2)c1` [Compound 1213, 3-cyclopropoxy-4-(N-(3-cyclopropyl-5-isopropoxybenzyl)-2-(N-(2-(trifluoromethyl)benzyl)-(2,3,4,5,6-pentafluoro-phenyl)sulfonamido)acetamido)benzoic acid], for which the values for the IC50 (in the series on MV4-11 cells; in series [1]) were 0.01 to 316 nM and 10000 to 20000 nM, respectively. This compound registered a half-life at 25 μM in the series on glutathione (GSH) of 2.37 to 4.12 h.
